These results are taken from patent US20130296390A1, “METHOD AND COMPOSITIONS FOR ENHANCING THE SAFETY OF ORALLY ADMINISTERED MAGNESIUM ALPHA-LIPOATE” (BIOLINK LIFE SCIENCES, INC., priority 2012, published 2013).

Entries after “also recorded” stand apart in the source; their conditions may differ.

The target of series [1] is T1, sodium-dependent vitamin transporters (SMVT) (Homo sapiens, UniProt Q9Y289).
T1 construct: in keratinocytes, the SMVT transport system; endogenous in cells; host or cells: human keratinocytes
T1 sequence (Q9Y289 1-635): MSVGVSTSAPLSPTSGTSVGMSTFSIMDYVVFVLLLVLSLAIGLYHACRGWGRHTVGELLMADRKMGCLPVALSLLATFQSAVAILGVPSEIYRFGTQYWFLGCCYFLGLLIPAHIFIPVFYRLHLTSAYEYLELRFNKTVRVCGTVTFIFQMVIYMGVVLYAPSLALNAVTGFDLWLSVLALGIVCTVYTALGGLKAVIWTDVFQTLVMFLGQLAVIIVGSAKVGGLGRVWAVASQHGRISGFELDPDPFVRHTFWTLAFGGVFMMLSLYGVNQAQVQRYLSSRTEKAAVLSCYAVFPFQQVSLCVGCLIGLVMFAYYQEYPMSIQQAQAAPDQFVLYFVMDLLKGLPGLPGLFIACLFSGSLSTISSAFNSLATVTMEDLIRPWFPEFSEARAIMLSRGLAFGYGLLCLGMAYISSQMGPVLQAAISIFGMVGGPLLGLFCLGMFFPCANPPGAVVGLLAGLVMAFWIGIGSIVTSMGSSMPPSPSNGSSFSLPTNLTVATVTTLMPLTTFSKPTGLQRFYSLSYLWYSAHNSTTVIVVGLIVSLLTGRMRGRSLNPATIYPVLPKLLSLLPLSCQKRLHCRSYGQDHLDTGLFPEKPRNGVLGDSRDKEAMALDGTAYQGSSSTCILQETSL
The conditions noted are these: keratinocytes, cited from earlier work; for Ki: read-out: Ki, inhibition of biotin uptake.

The test system of series [2] is second biotin transport component. The following applies: keratinocytes, cited from earlier work.
The nature of series [3]: Physicochemical description.
In series [4] the test system is mouse model of chronic kidney disease (CKD). Description: Example 1: phosphate binders in diet of LDLR−/− mouse model of CKD. It counts as in vivo. The conditions noted are these: chronic daily dose of 0.5% or 1.5% (by weight) in the diet, oral.
From the text: This study critically examined the in vivo efficacy of phosphate binding by a combination of phosphate binders, magnesium R-(+)-α-lipoate and calcium succinate monohydrate, in a mouse model of chronic kidney disease (CKD). The model is partial renal ablation in the LDL receptor-deficient (LDLR−/−) mouse that is fed high fat/cholesterol diets. […] In these animals, CKD causes intensification of vascular calcification (VC).
Materials: Calcium succinate monohydrate (CaSucc) and magnesium R-(+)-α-lipoate (MgRALA) having high purity and freedom from contaminating trace metals were provided by BioLink Life Sciences, Inc. Other chemicals were purchased from Sigma Aldrich Company (St. Louis, Mo.). […]
Two sets of animals in the group receiving magnesium alpha-lipoate were treated according to the protocol. […] Myocardin, Smad6, sm22α, calponin, αSMA, BMP-2, RUNX2/Cbfa1, osteopontin and osteocalcin message levels were measured by real time RT-PCR. Osteocalcin, type 1 collagen and αSMA were determined by immunohistochemistry. MGP levels and specifically γ-carboxylated MGP were determined with a specific antibody. […]
Blood Tests: Serum was analyzed on the day of blood draw for blood urea nitrogen [BUN], cholesterol, calcium, glucose and phosphate by standard autoanalyzer laboratory methods.
Series [5] is described as follows: Short and long-term toxicity studies of ALA (NOAEL). It counts as in vivo. Here is the method:
Alpha-Lipoic acid is the sole remaining component in the formulation tested in Example 1. The safety and absence of toxicity of ALA has been established in both short and long-term toxicity studies, including in vitro mutagenicity/genotoxicity studies. The no-observed adverse effect level (NOAEL) of ALA is considered to be 60 mg per kg body weight per day. […] Nonetheless, the inventor examined to a number of potential mechanisms of toxicity related to alpha-lipoate.

For series [6] the following is noted: in vivo; cited from earlier work.
The conditions of series [7]: oral; cited from earlier work.
Series [8] deals with T2, pyruvate carboxylase (EC 6.4.1.1) (Rattus norvegicus, UniProt P52873).
T2 construct: Lipoic acid reduces the activities of biotin-dependent carboxylases in rat liver; from tissue; host or cells: rat liver
T2 sequence (P52873 21-1178): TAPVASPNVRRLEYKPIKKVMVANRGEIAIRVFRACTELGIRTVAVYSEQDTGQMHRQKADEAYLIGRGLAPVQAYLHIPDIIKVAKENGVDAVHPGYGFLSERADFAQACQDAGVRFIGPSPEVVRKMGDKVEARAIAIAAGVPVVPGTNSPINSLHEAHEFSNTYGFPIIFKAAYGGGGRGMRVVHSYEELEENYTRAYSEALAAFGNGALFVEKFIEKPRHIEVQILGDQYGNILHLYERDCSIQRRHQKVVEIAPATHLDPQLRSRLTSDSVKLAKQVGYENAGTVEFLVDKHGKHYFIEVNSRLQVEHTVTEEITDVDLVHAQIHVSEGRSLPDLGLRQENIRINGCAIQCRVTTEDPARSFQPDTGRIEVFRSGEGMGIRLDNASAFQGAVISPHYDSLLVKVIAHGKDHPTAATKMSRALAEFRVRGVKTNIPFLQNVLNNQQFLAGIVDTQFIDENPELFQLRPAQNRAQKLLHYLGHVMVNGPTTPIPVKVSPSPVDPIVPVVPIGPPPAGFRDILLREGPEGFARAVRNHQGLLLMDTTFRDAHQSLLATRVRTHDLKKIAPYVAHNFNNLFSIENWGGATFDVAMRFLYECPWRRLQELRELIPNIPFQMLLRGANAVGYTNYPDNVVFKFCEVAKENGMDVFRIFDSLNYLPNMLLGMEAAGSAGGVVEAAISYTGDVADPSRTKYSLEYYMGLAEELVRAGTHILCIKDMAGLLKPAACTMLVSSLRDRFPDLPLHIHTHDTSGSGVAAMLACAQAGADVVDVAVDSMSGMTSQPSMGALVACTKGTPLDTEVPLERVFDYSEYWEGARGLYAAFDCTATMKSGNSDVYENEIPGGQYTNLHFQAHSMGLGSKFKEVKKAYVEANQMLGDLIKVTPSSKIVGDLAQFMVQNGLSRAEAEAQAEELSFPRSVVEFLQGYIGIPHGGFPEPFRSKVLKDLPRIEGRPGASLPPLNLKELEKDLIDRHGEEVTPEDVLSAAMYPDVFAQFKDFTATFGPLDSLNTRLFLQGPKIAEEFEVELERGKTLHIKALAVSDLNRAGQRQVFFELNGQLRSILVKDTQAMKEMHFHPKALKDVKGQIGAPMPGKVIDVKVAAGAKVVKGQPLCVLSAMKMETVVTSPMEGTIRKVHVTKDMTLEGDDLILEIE
The following applies: intraperitoneal ALA 8.8 mg/kg·day or 31.8 mg/kg·d, rats, compared with vehicle controls (P<0.05); cited from earlier work.

Series [9] concerns the target T3, β-methylcrotonyl-CoA carboxylase (EC 6.4.1.4) (Rattus norvegicus, UniProt Q5I0C3+Q5XIT9).
T3 construct: Lipoic acid reduces the activities of biotin-dependent carboxylases in rat liver; from tissue; host or cells: rat liver
T3 sequence (Q5I0C3 39-715): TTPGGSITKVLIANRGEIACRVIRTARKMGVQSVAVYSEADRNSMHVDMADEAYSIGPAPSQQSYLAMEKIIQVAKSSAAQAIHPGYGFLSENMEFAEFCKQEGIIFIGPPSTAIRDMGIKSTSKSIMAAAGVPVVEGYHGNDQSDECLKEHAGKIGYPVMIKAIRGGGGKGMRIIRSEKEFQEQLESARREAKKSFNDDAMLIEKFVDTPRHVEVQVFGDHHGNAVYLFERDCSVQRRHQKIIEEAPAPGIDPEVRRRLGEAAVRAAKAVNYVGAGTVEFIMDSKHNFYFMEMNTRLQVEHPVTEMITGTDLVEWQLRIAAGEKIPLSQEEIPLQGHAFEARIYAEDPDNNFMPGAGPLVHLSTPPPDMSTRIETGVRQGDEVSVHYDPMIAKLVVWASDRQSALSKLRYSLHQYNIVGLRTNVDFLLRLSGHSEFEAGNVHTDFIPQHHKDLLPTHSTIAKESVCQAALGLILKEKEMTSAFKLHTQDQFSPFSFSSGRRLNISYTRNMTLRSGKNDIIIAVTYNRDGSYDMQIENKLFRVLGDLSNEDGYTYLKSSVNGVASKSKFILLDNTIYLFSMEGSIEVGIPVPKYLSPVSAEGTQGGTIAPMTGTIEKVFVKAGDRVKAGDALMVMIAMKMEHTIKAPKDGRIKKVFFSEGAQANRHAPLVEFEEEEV
T3 sequence (Q5XIT9 23-563): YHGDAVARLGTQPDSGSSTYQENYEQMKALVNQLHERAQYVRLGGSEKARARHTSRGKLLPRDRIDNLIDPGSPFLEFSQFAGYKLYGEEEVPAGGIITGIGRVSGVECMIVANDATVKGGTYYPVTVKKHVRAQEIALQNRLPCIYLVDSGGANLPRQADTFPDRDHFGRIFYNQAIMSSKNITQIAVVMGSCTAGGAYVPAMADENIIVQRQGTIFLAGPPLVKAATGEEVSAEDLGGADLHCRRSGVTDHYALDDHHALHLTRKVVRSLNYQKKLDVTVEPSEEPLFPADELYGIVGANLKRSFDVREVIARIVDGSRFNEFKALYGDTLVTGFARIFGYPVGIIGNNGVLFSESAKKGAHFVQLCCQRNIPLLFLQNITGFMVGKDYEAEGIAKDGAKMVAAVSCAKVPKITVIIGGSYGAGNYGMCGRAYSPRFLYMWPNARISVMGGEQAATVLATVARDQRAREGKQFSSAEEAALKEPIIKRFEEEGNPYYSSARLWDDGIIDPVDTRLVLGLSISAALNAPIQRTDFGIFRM
The conditions noted are these: intraperitoneal ALA 8.8 mg/kg·day or 31.8 mg/kg·d, rats, compared with vehicle controls (P<0.05); cited from earlier work.

The test system of series [10] is acetyl-CoA carboxylase (EC 6.4.1.2). The conditions noted are these: intraperitoneal ALA 8.8 mg/kg·day or 31.8 mg/kg·d, rats; wide intragroup variability; cited from earlier work.
For series [11] the following is noted: intravenous, acute 100 mg/kg dose, rat; cited from earlier work.
The conditions of series [12]: cited from earlier work.
For series [13] the following is noted: oral, chronic daily doses about 30 mg/kg to over 2,000 mg/kg body weight; cited from earlier work.

For the compound `CC(C)(CO)[C@@H](O)C(=O)NCCC(=O)O` [panthothenic acid], the Ki in series [1] was 1.2 µM. Also, in series [2], the “inhibition of second biotin transport component” value is listed as “not inhibited”.

For `O=C(O)CCCC[C@@H]1SC[C@@H]2NC(=O)N[C@@H]21` [biotin, D-biotin], in series [1] (SMVT transport system), the “Michaelis-Menten constant for biotin” value was 22.7 ± 1.0 µM and the maximal velocity is given as 163.6±3.5 pmol per five minutes per milligram of protein. Moreover, the Ki in series [2] (read-out: Ki, second biotin transport component, saturable at very low biotin concentrations) was 0.0026 ± 0.0001 µM.

As to `O=C(O)CCCCC1CCSS1` (stereo not drawn) [Magnesium a-lipoate, magnesium alpha-lipoate], the “stability and hygroscopicity of the powder” value in series [3] is given as “stable, non-hygroscopic”.

On to `O=C(O)CCCC[C@@H](S)CCS` (racemic) [dihydrolipoic acid], for which the Ki in series [1] was 11.4 µM.

In the case of `O=C(O)CCCC[C@@H]1CCSS1` [magnesium R-(+)-alpha-lipoate, Magnesium R-(+)-alpha-lipoate], the “overt adverse effects (FIG. 1)” value in series [4] is “hair loss and skin disorders”. The “stability and hygroscopicity of the powder” value in series [3] is “stable, non-hygroscopic”.

On to `C[C@@H]1NC(=O)N[C@@H]1CCCCCC(=O)O` [desthiobiotin], for which the Ki in [1] is 15.2 µM.

In the case of `O=C(O)CCCCC1CCSS1` (stereo not drawn) [ALA, alpha-lipoic acid], in series [5] (adult man), the “NOAEL equivalent for an adult man” value is recorded as 4.2 grams of ALA per day. Moreover, the “NOAEL equivalent for an adult woman” value in [5] (adult woman) is 3 grams of ALA per day. Besides, in series [1], the Ki was 4.6 µM. In addition, the “inhibition of second biotin transport component” value in [2] was “not inhibited”. In addition, the “no-observed adverse effect level (NOAEL)” value in series [6] is 60 mg per kg body weight per day. Further, in series [7], the “fraction of orally administered ALA absorbed into cells and the systemic circulation” value was “greater than 90%”; the “time in which most of the orally administered ALA is absorbed” value is on record as “two”. Also, the “reduction of pyruvate carboxylase activity” value in series [8] is 28-36%. The “reduction of β-methylcrotonyl carboxylase activity” value in series [9] is on record as 28-36%. Besides, in series [10], the “decrease of acetyl carboxylase activity” value was at most 43%. Moreover, in [11], the S-adenosylhomocysteine result is “elevated” and the S-adenosylmethionine entry was “depleted”. Moreover, in series [12] (normal subjects and those with chronic kidney disease), the “toxicities in human studies” value was “no significant toxicities have been observed”. In addition, the “overt adverse effects in humans” value in series [12] (oral, total doses 100 mg to 1800 mg daily for months or years) is on record as “without overt adverse effects; also recorded: no overt adverse effects”. The “overt adverse effects in animals” value in series [13] is recorded as “without overt adverse effects”.
